Measurements taken from ChEMBL document CHEMBL2073872, “Rat multispecific organic anion transporter 1 (rOAT1) transports zidovudine, acyclovir, and other antiviral nucleoside analogs” (J Pharmacol Exp Ther, 2000).
Blank lines part the entries; values can stand above or below the molecule they belong to.

Experiments:
[1] = biological target: T1, Solute carrier family 22 member 6 (Rattus norvegicus, UniProt O35956); experiment: (§1) TP_TRANSPORTER: uptake in Xenopus laevis oocytes; format: functional, cell-based, Oocyte; conditions: for Activity: oocyte
T1 sequence (O35956 whole entry): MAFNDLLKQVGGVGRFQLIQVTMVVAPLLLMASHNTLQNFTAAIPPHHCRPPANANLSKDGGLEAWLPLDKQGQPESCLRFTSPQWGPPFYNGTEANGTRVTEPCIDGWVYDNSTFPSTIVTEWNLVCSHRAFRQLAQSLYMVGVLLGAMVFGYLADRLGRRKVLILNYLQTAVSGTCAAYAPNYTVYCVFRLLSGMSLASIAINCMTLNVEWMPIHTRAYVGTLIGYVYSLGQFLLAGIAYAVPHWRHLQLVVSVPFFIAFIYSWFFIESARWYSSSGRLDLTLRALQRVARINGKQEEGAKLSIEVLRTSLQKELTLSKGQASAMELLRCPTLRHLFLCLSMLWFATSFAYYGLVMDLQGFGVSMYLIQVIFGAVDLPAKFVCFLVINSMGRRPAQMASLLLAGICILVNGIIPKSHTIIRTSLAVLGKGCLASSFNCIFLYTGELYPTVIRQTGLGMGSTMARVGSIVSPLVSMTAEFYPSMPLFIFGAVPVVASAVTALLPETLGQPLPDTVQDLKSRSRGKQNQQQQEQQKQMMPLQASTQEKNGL

[2] = biological target: T1, Solute carrier family 22 member 6; experiment: TP_TRANSPORTER: inhibition of PAH uptake (PAH: 2 uM, Foscarnet: 1000 uM) in Xenopus laevis oocytes; format: functional, cell-based; conditions: oocyte
[3] = biological target: T1, Solute carrier family 22 member 6; experiment: TP_TRANSPORTER: inhibition of PAH uptake (PAH: 2 uM, ACV: 1000 uM) in Xenopus laevis oocytes; format: functional, cell-based; conditions: oocyte
[4] = biological target: T1, Solute carrier family 22 member 6; experiment: TP_TRANSPORTER: inhibition of PAH uptake (PAH: 2 uM, Trifluridine: 1000 uM) in Xenopus laevis oocytes; format: functional, cell-based; conditions: oocyte
[5] = substrate: Nc1nc2c(ncn2COCCO)c(=O)[nH]1; experiment: as §1; format: functional, cell-based, Oocyte

Activity [1]: is not a substrate [-]
Activity [2]: is not an inhibitor [-]
Molecule: O=C(O)P(=O)(O)O [FOSCARNET]

Activity [1]: substrate [+]
Molecule: Nc1ccn([C@@H]2CS[C@H](CO)O2)c(=O)n1 [LAMIVUDINE]

Activity [1]: substrate [+]
Molecule: Cc1cn([C@H]2C=C[C@@H](CO)O2)c(=O)[nH]c1=O [STAVUDINE]

Activity [1]: substrate [+]
Molecule: O=c1[nH]c(=O)n([C@H]2C[C@H](O)[C@@H](CO)O2)cc1C(F)(F)F [TRIFLURIDINE]
Activity [4]: inhibitor [(at a rough estimate) 50 % of control]

Activity [1]: substrate [+]
Molecule: O=c1[nH]cnc2c1ncn2[C@H]1CC[C@@H](CO)O1 [DIDANOSINE]

Further lines, the molecule ahead of its results:

Molecule: Nc1nc2c(ncn2COCCO)c(=O)[nH]1 [ACYCLOVIR]
Activity [3]: inhibitor [(at a rough estimate) 50 % of control]

Molecule: Nc1ccn([C@H]2CC[C@@H](CO)O2)c(=O)n1 [ZALCITABINE]
Activity [1]: substrate [+]

Molecule: Cc1cn([C@H]2C[C@H](N=[N+]=[N-])[C@@H](CO)O2)c(=O)[nH]c1=O [ZIDOVUDINE]
Km ([1]; Xenopus laevis oocytes): 68 µM

B1: Solute carrier family 22 member 6 (Rattus norvegicus) (protein)
chain: T1 sequence (O35956 whole entry)
Km [5]: 242 µM
